Assay results from PubChem BioAssay AID1919004 (Molecular Pharmacology Branch, DTP, NCI, 2023).
Several values for one entry are separate records, joined by “and”; a condition that tells them apart may be missing. Equal values may be shown once.

System: 883617-216-R-J1-PDC complex spheroids, growth, % test/control
Test: Anticancer human tumor 883617-216-R-J1-PDC patient-derived bladder carcinoma cell line growth inhibition [AhR]
Details: for viability, T/C: stronger effect = lower value; active means viability on the fitted dose curve at most 10% of control; inactive means the rest
From the text: Multicellular complex tumor spheroid response to aryl hydrocarbon receptor antagonists in combination with a variety of drugs and investigational agents in selected tumor cell lines
The current study was undertaken to assess response to aryl hydrocarbon receptor antagonists in combination with standard-of-care drugs and investigational agents in solid tumor complex spheroid models. Complex spheroids include a stromal component modeled by human endothelial cells (HUVEC) and fibroblasts modeled by human mesenchymal stem cells (MSCs). The concentration ranges selected for each drug and investigational agent were based upon clinically achievable concentrations if the clinical Cmax of the agent was known.
Compounds. The drugs and investigational agents: BAY 2416964 (NSC825713), GNF351 (NSC835774), CH-223191 (NSC835775), CPI-455 (NSC825282), aza-TdCyd (NSC777586), decitabine (NSC127716), belinostat (NSC758774), entinostat (NSC756642), pevonedistat (NSC761192), tazemetostat (NSC777109), talazoparib (NSC765396), olaparib (NSC753686), selinexor (NSC780203), nedisertib (M3814, NSC802822), bortezomib (NSC756655), venetoclax (NSC766270), doxorubicin (NSC123127), elimusertib (BAY189344, NSC800525), ceralasertib (AZD6738, NSC777638), TAK-243 (NSC785004), alisertib (NSC759677), etoposide (NSC141540), topotecan (NSC609699), eribulin (NSC707389), gemcitabine (NSC613327), carboplatin (NSC241240), cisplatin (NSC119875), and SN-38 (NSC673596) were obtained from the National Cancer Institute (NCI) Developmental Therapeutics Program Chemical Repository (32). The FDA-approved anticancer drug set is available from the Developmental Therapeutics Program at https://dtp.cancer.gov/organization/dscb/obtaining/available plates.htm. […] The stock solutions were prepared in dimethyl sulfoxide (DMSO, Sigma-Aldrich, St. Louis, MO, cat. D2650), except for the platinum compounds which were prepared in saline (Quality Biological, Gaithersburg, MD, cat. 114-055-101), at 800-fold the tested concentration and stored at -70 degrees C prior to their use. All drugs and investigational agents were tested over a range starting from a high concentration at or near the clinical Cmax and decreasing in half-log increments. If the clinical Cmax for an agent had not been determined, the highest concentration tested was 10 microM (Table 1).
Cell Culture. All cells were maintained in an incubator at 37 degrees C and 5% CO2 with 95% humidity. The PDC lines were cultured according to standard operating procedures established by the NCI PDMR (https://pdmr.cancer.gov). Briefly, all PDCs were thawed and cultured in Matrigel-coated flasks prepared with a working solution of 1X Ham's F-12 nutrient mix, without supplementation (Invitrogen, Waltham, MA, cat. 11765054), 100 U/mL penicillin-streptomycin (Invitrogen, cat. 15140122), and 2.5% Matrigel (Corning Inc., Corning, NY, cat. 354248) for the first three passages. All PDCs were cultured in complete DMEM/F-12 media containing advanced DMEM/F-12 (Invitrogen, cat. 12634028), 4.9% defined fetal bovine serum, heat inactivated (HyClone Laboratories Inc., Logan, UT, cat. SH30070.03HI), 389 ng/mL hydrocortisone (Sigma-Aldrich, cat. H4001), 9.7 ng/mL human EGF recombinant protein (Invitrogen, cat. PHG0313), 23.4 microg/mL adenine (Sigma-Aldrich, cat. A2786), 97.3 U/mL penicillin-streptomycin (Invitrogen, cat. 15140122), 1.9 mM L-glutamine (Invitrogen, cat. 25030081), and 9.7 microM Y-27632 dihydrochloride (Tocris Bioscience, Bristol, United Kingdom, cat. 1254). The PDCs were cultured in complete DMEM/F12 media without 10 microM Y-27632 dihydrochloride for at least two passages prior to the screen. The established cell lines NCI-H1341 and […] were cultured in DMEM/F-12, HEPES (Invitrogen, cat. 11330032), 5% defined fetal bovine serum (HyClone Laboratories Inc., cat. SH30070.03), ITS premix universal culture supplement [insulin (5 microg/mL), transferrin (5 microg/mL), and selenious acid (5 ng/mL)] […]

[1] = curve of first compound, second compound 0.1 µM
[2] = curve of first compound, second compound 0.316 µM
[3] = curve of first compound, second compound 1 µM
[4] = curve of first compound, second compound 3.16 µM
[5] = curve of first compound, second compound 10 µM
[6] = second compound 0.1 µM, first compound 0.0316 µM
[7] = second compound 0.1 µM, first compound 0.1 µM
[8] = second compound 0.1 µM, first compound 0.316 µM
[9] = second compound 0.1 µM, first compound 1 µM
[10] = second compound 0.1 µM, first compound 3.16 µM
[11] = second compound 0.1 µM, first compound 10 µM
[12] = second compound 0.316 µM, first compound 0.0316 µM
[13] = second compound 0.316 µM, first compound 0.1 µM
[14] = second compound 0.316 µM, first compound 0.316 µM
[15] = second compound 0.316 µM, first compound 1 µM
[16] = second compound 0.316 µM, first compound 3.16 µM
[17] = second compound 0.316 µM, first compound 10 µM
[18] = second compound 1 µM, first compound 0.0316 µM
[19] = second compound 1 µM, first compound 0.1 µM
[20] = second compound 1 µM, first compound 0.316 µM
[21] = second compound 1 µM, first compound 1 µM
[22] = second compound 1 µM, first compound 3.16 µM
[23] = second compound 1 µM, first compound 10 µM
[24] = second compound 3.16 µM, first compound 0.0316 µM
[25] = second compound 3.16 µM, first compound 0.1 µM
[26] = second compound 3.16 µM, first compound 0.316 µM
[27] = second compound 3.16 µM, first compound 1 µM
[28] = second compound 3.16 µM, first compound 3.16 µM
[29] = second compound 3.16 µM, first compound 10 µM
[30] = second compound 10 µM, first compound 0.0316 µM
[31] = second compound 10 µM, first compound 0.1 µM
[32] = second compound 10 µM, first compound 0.316 µM
[33] = second compound 10 µM, first compound 1 µM
[34] = second compound 10 µM, first compound 3.16 µM
[35] = second compound 10 µM, first compound 10 µM
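Further: exposure lasted 7 days after dosing on day 3 of spheroid growth.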

COc1ccc([C@@H](O)c2cc(-c3ncnc4cc(N5CCOCC5)ccc34)c(F)cc2Cl)nn1 + Cc1ccccc1N=Nc1ccc(NC(=O)c2ccnn2C)c(C)c1
1.78 µM: IC50 [4]
2.3 µM: IC50 [2]
3.45 µM: IC50 [1]
2.42 µM: IC50 [3]
inactive: viability, T/C [6] 97.8% | viability, T/C [7] 91.4% | viability, T/C [8] 81.3% | viability, T/C [9] 67.8% | viability, T/C [10] 51.4% | viability, T/C [11] 33.8% | viability, T/C [12] 83.7% | viability, T/C [13] 84.9% | viability, T/C [14] 78.3% | viability, T/C [15] 61.4% | viability, T/C [16] 46.4% | viability, T/C [17] 33.9% | viability, T/C [18] 91.1% | viability, T/C [19] 80.7% | viability, T/C [20] 72.8% | viability, T/C [21] 60.2% | viability, T/C [22] 47.2% | viability, T/C [23] 32.6% | viability, T/C [24] 76.8% | viability, T/C [25] 80% | viability, T/C [26] 76.1% | viability, T/C [27] 58.2% | viability, T/C [28] 41.9% | viability, T/C [29] 32.9% | viability, T/C [30] 75.4% | viability, T/C [31] 74.2% | viability, T/C [32] 64.5% | viability, T/C [33] 57.3% | viability, T/C [34] 42.3% | viability, T/C [35] 34.2%
1.69 µM: IC50 [5]

CC1COCCN1c1cc(-c2ccnn2C)c2ccnc(-c3ccn[nH]3)c2n1 (centres undefined)
inactive: viability, T/C (compound 0.00316 µM) 104% and 105% and 107% | viability, T/C (compound 0.01 µM) 97.6% and 103% and 86.6% | viability, T/C (compound 0.0316 µM) 100% and 93.5% and 68% | viability, T/C (compound 0.1 µM) 72.3% and 75.9% and 62.1% | viability, T/C (compound 0.316 µM) 65.9% and 55.5% and 80.2% | viability, T/C (compound 1 µM) 51% and 51.4% and 54.9%
> 1 µM: IC50 (curve of compound)

O=C(c1cc(Cc2n[nH]c(=O)c3ccccc23)ccc1F)N1CCN(C(=O)C2CC2)CC1 + CC(CO)NC(=O)c1cc(-c2ccc(Cl)cc2)nn(-c2cnn(C)c2)c1=O
> 10 µM: IC50 [1] | IC50 [2] | IC50 [3] | IC50 [4] | IC50 [5]
inactive: viability, T/C [6] 107% | viability, T/C [7] 109% | viability, T/C [8] 78.8% | viability, T/C [9] 124% | viability, T/C [10] 118% | viability, T/C [11] 80.2% | viability, T/C [12] 80% | viability, T/C [13] 114% | viability, T/C [14] 115% | viability, T/C [15] 92.3% | viability, T/C [16] 72.4% | viability, T/C [17] 87.1% | viability, T/C [18] 122% | viability, T/C [19] 124% | viability, T/C [20] 111% | viability, T/C [21] 104% | viability, T/C [22] 137% | viability, T/C [23] 97% | viability, T/C [24] 120% | viability, T/C [25] 88.5% | viability, T/C [26] 85.5% | viability, T/C [27] 105% | viability, T/C [28] 119% | viability, T/C [29] 82.3% | viability, T/C [30] 126% | viability, T/C [31] 84.7% | viability, T/C [32] 128% | viability, T/C [33] 98.9% | viability, T/C [34] 64.2% | viability, T/C [35] 104%

Nc1ccn(C2OC(CO)C(O)C2(F)F)c(=O)n1 (centres undefined)
inactive: viability, T/C (compound 0.0316 µM) 28.9% and 105% and 26.2% | viability, T/C (compound 0.1 µM) 28.2% and 135% and 27.1% | viability, T/C (compound 0.316 µM) 32% and 64% and 25.9% | viability, T/C (compound 1 µM) 37% and 80.2% and 30.9% | viability, T/C (compound 3.16 µM) 40.3% and 118% and 35.9% | viability, T/C (compound 10 µM) 37.1% and 79.3% and 35.7%

Nc1ccccc1NC(=O)c1ccc(CNC(=O)OCc2cccnc2)cc1 + Cc1ccccc1N=Nc1ccc(NC(=O)c2ccnn2C)c(C)c1
1.14 µM: IC50 [5]
1.08 µM: IC50 [2]
1.06 µM: IC50 [1]
active: viability, T/C [11] 1.52% | viability, T/C [17] 1.3% | viability, T/C [23] 1.53% | viability, T/C [29] 1.32% | viability, T/C [35] 2.23%
0.901 µM: IC50 [3]
inactive: viability, T/C [6] 102% | viability, T/C [7] 103% | viability, T/C [8] 77.5% | viability, T/C [9] 51% | viability, T/C [10] 23.3% | viability, T/C [12] 85.7% | viability, T/C [13] 95% | viability, T/C [14] 86% | viability, T/C [15] 49.5% | viability, T/C [16] 18.6% | viability, T/C [18] 87.6% | viability, T/C [19] 88.5% | viability, T/C [20] 76.7% | viability, T/C [21] 44.8% | viability, T/C [22] 20.1% | viability, T/C [24] 80.2% | viability, T/C [25] 84.7% | viability, T/C [26] 70.6% | viability, T/C [27] 44.8% | viability, T/C [28] 16.6% | viability, T/C [30] 79.5% | viability, T/C [31] 76.6% | viability, T/C [32] 72.4% | viability, T/C [33] 51.9% | viability, T/C [34] 25.4%
0.818 µM: IC50 [4]

Cc1ccccc1N=Nc1ccc(NC(=O)c2ccnn2C)c(C)c1
inactive: viability, T/C (compound 0.1 µM) 90.3% [middle of 20 runs] | viability, T/C (compound 0.316 µM) 84.6% [middle of 20 runs] | viability, T/C (compound 1 µM) 84.5% [middle of 19 runs] | viability, T/C (compound 3.16 µM) 77% [middle of 20 runs] | viability, T/C (compound 10 µM) 77% [middle of 21 runs]
> 10 µM: IC50 (compound alone, run of 06/14/2022)
